# Reference: the supplement of paper PMC10307832
# Columns and labels:
# Assay in all cases: relative viability (nuclei count vs DMSO), 5 days (fraction); higher = more cells survive
# [1] = compound: COc1cc(Nc2ncc3c(n2)-c2ccc(Cl)cc2C(c2c(F)cccc2OC)=NC3)ccc1C(=O)O [Alisertib]
# In short: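 For viability, nuclei in each treated well were divided by nuclei in vehicle wells and the median across plates was taken. Lung cancer cell lines in 1536-well plates were pinned with five library-drug doses (not always all listed) spaced by √10, cultured 5 days without medium change, and imaged at 4× after Hoechst staining, with plates passing only at control CV below 25% and at least one doubling.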
# [2] = compound: COc1cc(Nc2ncc3c(n2)-c2ccc(Cl)cc2C(c2c(F)cccc2OC)=NC3)ccc1C(=O)O [Alisertib] + CC1(C)CCC(c2ccc(Cl)cc2)=C(CN2CCN(c3ccc(C(=O)NS(=O)(=O)c4ccc(N[C@H](CCN5CCOCC5)CSc5ccccc5)c(S(=O)(=O)C(F)(F)F)c4)cc3)CC2)C1 [Navitoclax] (partner 0.5 µM)
# In short: (§1)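 One day after seeding in 1536-well plates, lung cancer cell lines were dosed by pin tool. Dosing was either single-drug or a fixed anchor-drug dose plus five library-drug doses (not always all listed) in √10 steps. After 5 days, nuclei were stained in one fix-and-stain step and counted on 4× images, and relative viability is the nuclei count of treated wells over that of vehicle wells, given as the median of duplicate plates.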
# [3] = compound: COc1cc(Nc2ncc3c(n2)-c2ccc(Cl)cc2C(c2c(F)cccc2OC)=NC3)ccc1C(=O)O [Alisertib] + COc1cc2c(Oc3ccc(NC(=O)C4(C(=O)Nc5ccc(F)cc5)CC4)cc3F)ccnc2cc1OCCCN1CCOCC1 [Foretinib] (partner 0.25 µM)
# In short: as §1
# [4] = compound: COc1cc(Nc2ncc3c(n2)-c2ccc(Cl)cc2C(c2c(F)cccc2OC)=NC3)ccc1C(=O)O [Alisertib] + CS(=O)(=O)CCNCc1ccc(-c2ccc3ncnc(Nc4ccc(OCc5cccc(F)c5)c(Cl)c4)c3c2)o1 [Lapatinib] (partner 2 µM)
# In short: as §1
# [5] = compound: COc1cc(Nc2ncc3c(n2)-c2ccc(Cl)cc2C(c2c(F)cccc2OC)=NC3)ccc1C(=O)O [Alisertib] + CS(=O)(=O)N1CCN(Cc2cc3nc(-c4cccc5[nH]ncc45)nc(N4CCOCC4)c3s2)CC1 [Pictilisib] (partner 1 µM)
# In short: as §1
# [6] = compound: COc1cc(Nc2ncc3c(n2)-c2ccc(Cl)cc2C(c2c(F)cccc2OC)=NC3)ccc1C(=O)O [Alisertib] + C[C@@H](Oc1cc(-c2cnn(C3CCNCC3)c2)cnc1N)c1c(Cl)ccc(F)c1Cl [Crizotinib] (partner 1 µM)
# In short: as §1
# [7] = compound: COc1cc(Nc2ncc3c(n2)-c2ccc(Cl)cc2C(c2c(F)cccc2OC)=NC3)ccc1C(=O)O [Alisertib] + C[C@]1(O)C[C@@H](c2nc(-c3ccc4ccc(-c5ccccc5)nc4c3)c3c(N)nccn32)C1 [Linsitinib] (partner 1 µM)
# In short: as §1
# [8] = compound: COc1cc(Nc2ncc3c(n2)-c2ccc(Cl)cc2C(c2c(F)cccc2OC)=NC3)ccc1C(=O)O [Alisertib] + Cc1nc(NC(=O)N2CCC[C@H]2C(N)=O)sc1-c1ccnc(C(C)(C)C(F)(F)F)c1 [Alpelisib] (partner 2 µM)
# In short: as §1
# [9] = compound: COc1cc(Nc2ncc3c(n2)-c2ccc(Cl)cc2C(c2c(F)cccc2OC)=NC3)ccc1C(=O)O [Alisertib] + N=C(N)NC(=N)NCCc1ccccc1 [Phenformin] (partner 250 µM)
# In short: as §1
# [10] = compound: COc1cc(Nc2ncc3c(n2)-c2ccc(Cl)cc2C(c2c(F)cccc2OC)=NC3)ccc1C(=O)O [Alisertib] + Nc1ncn([C@H]2C[C@H](O)[C@@H](CO)O2)c(=O)n1 [Decitabine] (partner 2 µM)
# In short: as §1
# [11] = compound: COc1cc(Nc2ncc3c(n2)-c2ccc(Cl)cc2C(c2c(F)cccc2OC)=NC3)ccc1C(=O)O [Alisertib] + O=C(c1cc(Cc2n[nH]c(=O)c3ccccc23)ccc1F)N1CCN(C(=O)C2CC2)CC1 [Olaparib] (partner 8 µM)
# In short: as §1
cell line,measurement,setting,value
A549,relative viability,[1]; 0.005 µM,0.877
same,relative viability,[1]; 0.01581 µM,0.633
same,relative viability,[1]; 0.05 µM,0.331
same,relative viability,[1]; 0.1581 µM,0.0691
same,relative viability,[1]; 0.5 µM,0.0535
same,relative viability,[2]; first compound 0.005 µM,1.1
same,relative viability,[2]; first compound 0.01581 µM,0.642
same,relative viability,[2]; first compound 0.05 µM,0.215
same,relative viability,[2]; first compound 0.1581 µM,0.0692
same,relative viability,[2]; first compound 0.5 µM,0.0461
same,relative viability,[3]; first compound 0.005 µM,0.977
same,relative viability,[3]; first compound 0.01581 µM,0.492
same,relative viability,[3]; first compound 0.05 µM,0.209
same,relative viability,[3]; first compound 0.1581 µM,0.0402
same,relative viability,[3]; first compound 0.5 µM,0.0374
same,relative viability,[4]; first compound 0.005 µM,0.812
same,relative viability,[4]; first compound 0.01581 µM,0.235
same,relative viability,[4]; first compound 0.05 µM,0.148
same,relative viability,[4]; first compound 0.1581 µM,0.0742
same,relative viability,[4]; first compound 0.5 µM,0.0628
same,relative viability,[5]; first compound 0.005 µM,0.423
same,relative viability,[5]; first compound 0.01581 µM,0.123
same,relative viability,[5]; first compound 0.05 µM,0.051
same,relative viability,[5]; first compound 0.1581 µM,0.0422
same,relative viability,[5]; first compound 0.5 µM,0.0618
same,relative viability,[6]; first compound 0.005 µM,0.611
same,relative viability,[6]; first compound 0.01581 µM,0.197
same,relative viability,[6]; first compound 0.05 µM,0.0682
same,relative viability,[6]; first compound 0.1581 µM,0.0571
same,relative viability,[6]; first compound 0.5 µM,0.0624
same,relative viability,[7]; first compound 0.005 µM,0.556
same,relative viability,[7]; first compound 0.01581 µM,0.414
same,relative viability,[7]; first compound 0.05 µM,0.139
same,relative viability,[7]; first compound 0.1581 µM,0.0745
same,relative viability,[7]; first compound 0.5 µM,0.0473
same,relative viability,[8]; first compound 0.005 µM,0.531
same,relative viability,[8]; first compound 0.01581 µM,0.333
same,relative viability,[8]; first compound 0.05 µM,0.144
same,relative viability,[8]; first compound 0.1581 µM,0.059
same,relative viability,[8]; first compound 0.5 µM,0.0557
same,relative viability,[9]; first compound 0.005 µM,0.152
same,relative viability,[9]; first compound 0.01581 µM,0.0871
same,relative viability,[9]; first compound 0.05 µM,0.0611
same,relative viability,[9]; first compound 0.1581 µM,0.0311
same,relative viability,[9]; first compound 0.5 µM,0.0352
same,relative viability,[10]; first compound 0.005 µM,0.247
same,relative viability,[10]; first compound 0.01581 µM,0.207
same,relative viability,[10]; first compound 0.05 µM,0.125
same,relative viability,[10]; first compound 0.1581 µM,0.0435
same,relative viability,[10]; first compound 0.5 µM,0.0399
same,relative viability,[11]; first compound 0.005 µM,0.317
same,relative viability,[11]; first compound 0.01581 µM,0.305
same,relative viability,[11]; first compound 0.05 µM,0.0782
same,relative viability,[11]; first compound 0.1581 µM,0.079
same,relative viability,[11]; first compound 0.5 µM,0.0413
